For 28 compounds, IC50 results are on record in patent US9464076B2, “Benzothiophene derivative” (Daiichi Sankyo Company, Limited, priority 2013, dated 2016).

pIC50: −log10 of the molar value. Where a name gives a salt, the structure may show the parent alone.

PDE10A, sequence (Q9Y233 whole entry): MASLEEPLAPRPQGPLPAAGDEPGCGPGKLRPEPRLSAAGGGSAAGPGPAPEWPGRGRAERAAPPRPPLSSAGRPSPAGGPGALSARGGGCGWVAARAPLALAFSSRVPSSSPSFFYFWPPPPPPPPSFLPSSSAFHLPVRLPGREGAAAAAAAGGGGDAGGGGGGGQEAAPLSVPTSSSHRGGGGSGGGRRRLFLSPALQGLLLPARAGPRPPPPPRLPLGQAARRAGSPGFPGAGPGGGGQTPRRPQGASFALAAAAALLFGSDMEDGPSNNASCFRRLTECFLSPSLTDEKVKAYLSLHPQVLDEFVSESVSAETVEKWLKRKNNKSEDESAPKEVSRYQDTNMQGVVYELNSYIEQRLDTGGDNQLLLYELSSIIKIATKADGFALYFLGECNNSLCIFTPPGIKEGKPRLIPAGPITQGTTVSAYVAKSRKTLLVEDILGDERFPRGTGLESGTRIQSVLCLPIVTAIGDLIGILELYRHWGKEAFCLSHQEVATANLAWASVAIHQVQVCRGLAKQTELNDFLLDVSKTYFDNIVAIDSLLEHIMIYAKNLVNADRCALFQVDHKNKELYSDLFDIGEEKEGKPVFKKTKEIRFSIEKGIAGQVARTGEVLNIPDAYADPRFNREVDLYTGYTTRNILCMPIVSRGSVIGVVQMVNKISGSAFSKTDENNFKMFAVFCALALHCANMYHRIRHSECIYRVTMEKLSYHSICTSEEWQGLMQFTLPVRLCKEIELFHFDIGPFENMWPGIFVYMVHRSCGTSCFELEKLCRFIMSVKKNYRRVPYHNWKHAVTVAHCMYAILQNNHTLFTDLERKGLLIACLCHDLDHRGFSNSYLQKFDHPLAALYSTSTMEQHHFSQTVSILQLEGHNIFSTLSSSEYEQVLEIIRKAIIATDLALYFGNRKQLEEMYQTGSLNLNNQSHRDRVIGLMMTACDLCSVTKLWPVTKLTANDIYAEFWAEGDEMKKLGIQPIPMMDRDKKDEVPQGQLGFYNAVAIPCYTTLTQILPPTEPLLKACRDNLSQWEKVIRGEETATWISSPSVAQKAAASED

The assay concerns the target PDE10A (Homo sapiens (Human), UniProt Q9Y233). Put plainly: Measurement of PDE10A inhibitory activity-2 (PDE10A fraction prepared from MOLT-4 cells). The following applies: PDE10A fraction from MOLT-4 cells (peak around 250 mM NaCl). It counts as biochemical. Here is the method: A human acute lymphoblastic lymphoma T cell line MOLT-4 (which can be purchased under ATCC No. CRL-1582 from ATCC) was cultured in an RPMI1640 medium containing 10% fetal bovine serum to obtain 5×10^8 MOLT-4 cells. The cells were recovered by centrifugation and suspended in 10 ml of buffer solution A (25 mM Tris-HCl, 5 mM 2-mercaptoethanol, 2 mM benzamidine, 2 mM EDTA, and 0.1 mM 4-(2-aminoethyl)benzenesulfonyl hydrochloride, pH 7.5). The cells were homogenized using a Polytron homogenizer and centrifuged (4° C., 25,000 g, 10 minutes). Then, the supernatant was further ultracentrifuged (4° C., 100,000 g, 60 minutes). The obtained supernatant was filtered through a 0.2 μm filter to obtain a soluble fraction.
HiTrap Q HP column (5 ml×2, GE Healthcare Japan Corp.) equilibrated with buffer solution A was charged with the obtained soluble fraction. Phosphodiesterase was eluted with 300 ml of buffer solution A containing a linear gradient solution of 0 to 0.8 M NaCl to recover sixty 5-ml fractions. Each fraction was tested for cAMP-metabolizing phosphodiesterase activity.
On the other hand, total RNA was prepared from Jurkat cells, one type of human T cell, and similarly subjected to RT-PCR. […] Eur J Biochem. 1999, 266 (3), 1118-2 has reported that PDE10A from the rat striatum and testis is eluted as an active peak centered around 250 mM NaCl.
For these reasons, this fraction was used as a solution for the evaluation of PDE10A inhibitory activity. The obtained solution was used to calculate the inhibitory activity (IC50) of a test compound in the same way as in the aforementioned test.
Turning to `COCc1ccc(C(C)=O)c2sc(C(=O)Nc3cc(CN4CCC(F)CC4)c4ccccc4n3)c(C)c12` [Example 46, 7-Acetyl-N-(4-((4-fluoropiperidin-1-yl)methyl)quinolin-2-yl)-4-(methoxymethyl)-3-methylbenzo[b]thiophene-2-carboxamide], the pIC50 (usually −log10 of the IC50, conventionally taken in molar units) is 9.36.
`COCc1ccc(C(C)=O)c2sc(C(=O)Nc3cc(CN4CCC(F)(F)C4)c4ccccc4n3)c(C)c12` [Example 48, 7-Acetyl-N-(4-((3,3-difluoropyrrolidin-1-yl)methyl)quinolin-2-yl)-4-(methoxymethyl)-3-methylbenzo[b]thiophene-2-carboxamide] gave a pIC50 of 9.07.
Consider `COCc1ccc(C(C)=O)c2sc(C(=O)Nc3cc(C(=O)N4CC[C@@H](O)C4)c4ccccc4n3)c(C)c12` [Example 50, (R)-7-Acetyl-N-(4-((3-hydroxypyrrolidin-1-yl)carbonyl)quinolin-2-yl)-4-(methoxymethyl)-3-methylbenzo[b]thiophene-2-carboxamide], for which the pIC50 is 8.59.
Regarding `CC(=O)c1ccc(C(C)=O)c2c(C)c(C(=O)Nc3cc(CN4CCC(O)C4)c4ccccc4n3)sc12` (stereo not shown) [Example 51, 4,7-Diacetyl-N-(4-((3-hydroxypyrrolidin-1-yl)methyl)quinolin-2-yl)-3-methylbenzo[b]thiophene-2-carboxamide], the pIC50 is 8.82.
As for `CC(=O)c1ccc(C(C)=O)c2c(C)c(C(=O)Nc3cc(CN4CC(O)C4)c4ccccc4n3)sc12` [Example 52, 4,7-Diacetyl-N-(4-((3-hydroxyazetidin-1-yl)methyl)quinolin-2-yl)-3-methylbenzo[b]thiophene-2-carboxamide], the pIC50 is 8.92.
Then `COCc1ccc(C(C)=O)c2sc(C(=O)Nc3cc(Cl)c4ccccc4n3)c(C)c12` [Example 53, 7-Acetyl-N-(4-chloroquinolin-2-yl)-4-(methoxymethyl)-3-methylbenzo[b]thiophene-2-carboxamide], with 7.74; and `COCc1ccc(C(C)=O)c2sc(C(=O)Nc3cc(N4CCOCC4)c4ccccc4n3)c(C)c12` [Example 56, 7-Acetyl-4-(methoxymethyl)-3-methyl-N-(4-morpholinoquinolin-2-yl)benzo[b]thiophene-2-carboxamide], with 8.96.
On to `COCc1ccc(C(=O)C(C)(C)C)c2sc(C(=O)Nc3cc(CN4CC[C@@H](O)C4)c4ccccc4n3)c(C)c12` [Example 58, (R)—N-(4-((3-Hydroxypyrrolidin-1-yl)methyl)quinolin-2-yl)-4-(methoxymethyl)-3-methyl-7-pivaloylbenzo[b]thiophene-2-carboxamide dihydrochloride], for which the pIC50 is 10.07.
In the case of `CCOCc1cccc2nc(NC(=O)c3sc4c(C(C)=O)ccc(COC)c4c3C)ccc12` [Example 70, 7-Acetyl-N-(5-(ethoxymethyl)quinolin-2-yl)-4-(methoxymethyl)-3-methylbenzo[b]thiophene-2-carboxamide], the pIC50 was 8.80.
`COCc1ccc(C(C)=O)c2sc(C(=O)Nc3ccc4c(COC(F)F)cccc4n3)c(C)c12` [Example 73, 7-Acetyl-N-(5-((difluoromethoxy)methyl)quinolin-2-yl)-4-(methoxymethyl)-3-methylbenzo[b]thiophene-2-carboxamide hydrochloride]: the pIC50 is 8.70.
The result for `COCc1ccc(C(C)=O)c2sc(C(=O)Nc3ccc4c(C(C)(C)O)cccc4n3)c(C)c12` [Example 74, 7-Acetyl-N-(5-(2-hydroxypropan-2-yl)quinolin-2-yl)-4-(methoxymethyl)-3-methylbenzo[b]thiophene-2-carboxamide] reads 8.52; that for `COCc1ccc(C(C)=O)c2sc(C(=O)Nc3ccc4c(C(C)=O)cccc4n3)c(C)c12` [Example 75, 7-Acetyl-N-(5-acetylquinolin-2-yl)-4-(methoxymethyl)-3-methylbenzo[b]thiophene-2-carboxamide], 9.04; that for `COCc1ccc(C(C)=O)c2sc(C(=O)Nc3ccc4c(COC(C)=O)cccc4n3)c(C)c12` [Example 83, (2-(7-Acetyl-4-(methoxymethyl)-3-methylbenzo[b]thiophene-2-carboxamido)quinolin-5-yl)methylacetate], 9.07.
Then `COCc1ccc(C(C)=O)c2sc(C(=O)Nc3ccc4c(COC(=O)CCC(=O)O)cccc4n3)c(C)c12` [Example 89, 4-((2-(7-Acetyl-4-(methoxymethyl)-3-methylbenzo[b]thiophene-2-carboxamido)quinolin-5-yl)methoxy)-4-oxobutanoic acid], with 9.43; and `COCc1ccc(C(C)=O)c2sc(C(=O)Nc3ccc4c(COC(=O)[C@@H](N)CO)cccc4n3)c(C)c12` [Example 91, (S)-(2-(7-Acetyl-4-(methoxymethyl)-3-methylbenzo[b]thiophene-2-carboxamido)quinolin-5-yl)methyl-2-amino-3-hydroxypropanoate], with 9.13; and `COCc1ccc(C(C)=O)c2sc(C(=O)Nc3ccc4c(C(=O)OC)cccc4n3)c(C)c12` [Example 92, Methyl 2-(7-acetyl-4-(methoxymethyl)-3-methylbenzo[b]thiophene-2-carboxamido)quinoline-5-carboxylate], with 7.92.
The compound `COCc1ccc(C(C)=O)c2sc(C(=O)Nc3ccc4c(C(=O)O)cccc4n3)c(C)c12` [Example 93, 2-(7-Acetyl-4-(methoxymethyl)-3-methylbenzo[b]thiophene-2-carboxamido)quinoline-5-carboxylic acid] had a pIC50 of 9.96.
Then `COCc1ccc(C(C)=O)c2sc(C(=O)Nc3ccc4c(C(=O)NN5CCCC5)cccc4n3)c(C)c12` [Example 94, 2-(7-Acetyl-4-(methoxymethyl)-3-methylbenzo[b]thiophene-2-carboxamido)-N-(pyrrolidin-1-yl)quinoline-5-carboxamide], with 8.92.
Consider `COCc1ccc(C(C)=O)c2sc(C(=O)Nc3ccc4c(C(=O)N5CCOCC5)cccc4n3)c(C)c12` [Example 95, 7-Acetyl-4-(methoxymethyl)-3-methyl-N-(5-((morpholin-4-yl)carbonyl)quinolin-2-yl)benzo[b]thiophene-2-carboxamide], for which the pIC50 is 9.32.
Then `COCc1ccc(C(C)=O)c2sc(C(=O)Nc3ccc4c(C(=O)N5CCC5)cccc4n3)c(C)c12` [Example 98, 7-Acetyl-N-(5-((azetidin-1-yl)carbonyl)quinolin-2-yl)-4-(methoxymethyl)-3-methylbenzo[b]thiophene-2-carboxamide], with 9.68.
Then `COCc1ccc(C(C)=O)c2sc(C(=O)Nc3ccc4c(C(=O)N5CC(F)C5)cccc4n3)c(C)c12` [Example 99, 7-Acetyl-N-(5-((3-fluoroazetidin-1-yl)carbonyl)quinolin-2-yl)-4-(methoxymethyl)-3-methylbenzo[b]thiophene-2-carboxamide], with 9.96.
The compound `COCc1ccc(C(C)=O)c2sc(C(=O)Nc3ccc4c(C(=O)N5CC(F)(F)C5)cccc4n3)c(C)c12` [Example 100, 7-Acetyl-N-(5-((3,3-difluoroazetidin-1-yl)carbonyl)quinolin-2-yl)-4-(methoxymethyl)-3-methylbenzo[b]thiophene-2-carboxamide] gave a pIC50 of 9.38.
`COCc1ccc(C(C)=O)c2sc(C(=O)Nc3ccc4c(C)cccc4n3)c(C)c12` [Example 108, 7-Acetyl-4-(methoxymethyl)-3-methyl-N-(5-methylquinolin-2-yl)benzo[b]thiophene-2-carboxamide] had a pIC50 of 8.80.
Compound `COCc1cccc2nc(NC(=O)c3sc4c(C(C)=O)ccc(CO)c4c3C)ccc12` [Example 113, 7-Acetyl-4-(hydroxymethyl)-N-(5-(methoxymethyl)quinolin-2-yl)-3-methylbenzo[b]thiophene-2-carboxamide] gave a pIC50 of 9.92.
Then `CC(=O)c1ccc(CO)c2c(C)c(C(=O)Nc3ccc4c(CO)cccc4n3)sc12` [Example 114, 7-Acetyl-4-(hydroxymethyl)-N-(5-(hydroxymethyl)quinolin-2-yl)-3-methylbenzo[b]thiophene-2-carboxamide], with 8.68.
Regarding `COC1CN(C(=O)c2cccc3nc(NC(=O)c4sc5c(C(C)=O)ccc(CO)c5c4C)ccc23)C1` [Example 115, 7-Acetyl-4-(hydroxymethyl)-N-(5-((3-methoxyazetidin-1-yl)carbonyl)quinolin-2-yl)-3-methylbenzo[b]thiophene-2-carboxamide], the pIC50 is 9.05.
In turn, `[2H]C([2H])([2H])OC1CN(C(=O)c2cccc3nc(NC(=O)c4sc5c(C(C)=O)ccc(COC)c5c4C)ccc23)C1` [Example 122, 7-Acetyl-N-(5-((3-(^2H3)methoxyazetidin-1-yl)carbonyl)quinolin-2-yl)-4-(methoxymethyl)-3-methylbenzo[b]thiophene-2-carboxamide] showed a pIC50 of 9.54.
In turn, `[2H]C([2H])([2H])OC1CN(C(=O)c2cccc3nc(NC(=O)c4sc5c(C(C)=O)ccc(C([2H])([2H])OC)c5c4C)ccc23)C1` [Example 123, 7-Acetyl-N-(5-((3-(^2H3)methoxyazetidin-1-yl)carbonyl)quinolin-2-yl)-4-(methoxy(^2H2)methyl)-3-methylbenzo[b]thiophene-2-carboxamide] gave a pIC50 of 9.66.
